# From US20250136568A1, “FUSED HETEROCYCLIC COMPOUNDS AS PI3KALPHA INHIBITORS” (Nanjing Zenshine Pharmaceuticals Co., Ltd., priority 2021, published 2025)
# Experiments:
# [1] = system: PI3Kα wide type cell line SK-BR-3; assay: Cell Proliferation IC50 Assay (CellTiter-Glo), SK-BR-3; format: cell-based; conditions: Homo sapiens; SK-BR-3 (PI3Kα wild type), 72 hours, CellTiter-Glo; read-out: IC50 (μM) SK-BR-3
# Procedure, shortened: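 Read-out was CellTiter-Glo luminescence after 72 h of compound exposure at 37 °C, 5% CO2. Cells had been plated overnight in complete medium before the compound was added at a 200-fold final dilution. IC50 was derived from percent inhibition.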
# [2] = system: PI3Kα H1047R mutation cell line MDA-MB-453; assay: Cell Proliferation IC50 Assay (CellTiter-Glo), MDA-MB-453; format: cell-based; conditions: Homo sapiens; MDA-MB-453 (H1047R), 72 hours, CellTiter-Glo; read-out: IC50 (μM) MDA-MB-453
# Source text: PI3Kα H1047R mutation cell line T-47D and MDA-MB-453, E545K mutation cell line MDA-MB-361 and PI3Kα wide type cell line SK-BR-3 were purchased from Cobioer Biotech (cat. no CBP60397, CBP60386, CBP60383 and CBP60413 respectively). The CellTiter-Glo Direct Cell Proliferation Assay Kit was purchased from Prornega (cat. No. G7573)
# For cell proliferation assay in each cell line: • a. Prepare complete medium (R PMI 1640, DMEM or McCoys): Add FBS and appropriate additives according to the information sheet provided by the vendor. Mix gently. • b. Prepare single cell suspension and count the cell numbers and adjust cells to appropriate density. • c. Add 80 μL of cell suspension to 96-well opaque-walled clear bottom plates according to the planned plate layout and place the plates in the CO2 incubator overnight. • d. Prepare intermediate plate: 10 μl of diluted test compounds or staurosporine solution (200×) is added to a 96 deep well plate. Then 390 μl of culture medium without FBS is added to the respective wells. • e. Transfer 20 μL of the solutions from the above intermediate plate to the wells of the plate prepared containing 80 μL of the culture medium and cells. The total dilution is 200 folds. • f. The cells were then incubated at 5% CO2, 37° C. for 72 hours. • g. Equilibrate the plate and its contents to room temperature for approximately 30 minutes. • h. Add 100 μL of CellTiter-Glo reagent to the assay plate • i. Mix contents for 10 minutes on an orbital shaker to induce cell lysis. • j. Allow the plate to incubate at room temperature for 10 minutes to stabilize luminescent signal, • k. Paste the clear bottom with white back seal and record luminescence with Varioskan LUX plate reader.
# Inhibition % and IC50 value were calculated by the formula described below: […]
IC50 [1] [µM],IC50 [2] [µM],SMILES
> 10,0.78,"Cc1cc(C(C)Nc2ccccc2C(=O)O)c2oc(-c3ccc4cnn(C)c4c3)cc(=O)c2c1 (centres unmarked) [Example 52, 2-((1-(6-methyl-2-(1-methyl-1H-indazol-6-yl)-4-oxo-4H-chromen-8-yl)ethyl)amino)benzoic acid]"
> 10,0.55,"Cc1cc(C(C)Nc2ccccc2C(=O)O)c2oc(-c3ccc4nn(C5COC5)cc4c3)cc(=O)c2c1 (centres unmarked) [Example 56, 2-((1-(6-methyl-2-(2-(oxetan-3-yl)-2H-indazol-5-yl)-4-oxo-4H-chromen-8-yl)ethyl)amino)benzoic acid]"
> 10,0.62,"Cc1cc(C(C)Nc2ccccc2C(=O)O)c2oc(-c3ccc4nn(CCO)cc4c3)cc(=O)c2c1 (centres unmarked) [Example 57, 2-((1-(2-(2-(2-hydroxyethyl)-2H-indazol-5-yl)-6-methyl-4-oxo-4H-chromen-8-yl)ethyl)amino)benzoic acid]"
> 10,0.27,"COCCn1cc2cc(-c3cc(=O)c4cc(C)cc(C(C)Nc5ccccc5C(=O)O)c4o3)ccc2n1 (centres unmarked) [Example 58, 2-((1-(2-(2-(2-methoxyethyl)-211-indazol-5-yl)-6-methyl-4-oxo-4H-chromen-8-yl)ethyl)amino)benzoic acid]"
> 10,6,"Cc1cc(C(C)Nc2ccccc2C(=O)O)c2oc(-c3ccc4ncn(C)c4c3)cc(=O)c2c1 (centres unmarked) [Example 60, 2-((1-(6-methyl-2-(1-methyl-1H-benzo[d]imidazol-6-yl)-4-oxo-4H-chromen-8-yl)ethyl)amino)benzoic acid]"
> 10,8.48,"Cc1cc(C(C)Nc2ccccc2C(=O)O)c2oc(-c3cc4cn(C)nc4cc3C)cc(=O)c2c1 (centres unmarked) [Example 61, 2-((1-(2-(2,6-dimethyl-21-indazol-5-yl)-6-methyl-4-oxo-4H-chromen-8-yl)ethyl)amino)benzoic acid]"
> 10,0.47,"Cc1cc(C(C)Nc2ccccc2C(=O)O)c2oc(-c3ccc4nn(C)cc4c3C)cc(=O)c2c1 (centres unmarked) [Example 62, 2-((1-(2-(2,4-dimethyl-2H-indazol-5-yl)-6-methyl-4-oxo-4H-chromen-8-yl)ethyl)amino)benzoic acid]"
> 10,1.9,"Cc1cc(C(C)Nc2ccccc2C(=O)O)c2oc(-c3ccc(N4CCOCC4=O)cc3)cc(=O)c2c1 (centres unmarked) [Example 64, 2-((1-(6-methyl-4-oxo-2-(4-(3-oxomorpholino)phenyl)-4H-chromen-8-yl)ethyl)amino)benzoic acid]"
> 10,0.21,"CC(=O)N1CCN(c2ccc(-c3cc(=O)c4cc(C)cc(C(C)Nc5ccccc5C(=O)O)c4o3)cc2)CC1 (centres unmarked) [Example 65, 2-((1-(2-(4-(4-acetylpiperazin-1-yl)phenyl)-6-methyl-4-oxo-4H-chromen-8-yl)ethyl)amino)benzoic acid]"
> 10,0.2,"Cc1cc(C(C)Nc2ccccc2C(=O)O)c2oc(-c3ccc(N4CCOCC4C)cc3)cc(=O)c2c1 (centres unmarked) [Example 66, 2-((1-(6-methyl-2-(4-(3-methylmorpholino)phenyl)-4-oxo-4H-chromen-8-yl)ethyl)amino)benzoic acid]"
> 10,0.2,"Cc1cc(C(C)Nc2ccccc2C(=O)O)c2oc(-c3ccc(N4CCOC(C)C4)cc3)cc(=O)c2c1 (centres unmarked) [Example 67, 2-((1-(6-methyl-2-(4-(2-methylmorpholino)phenyl)-4-oxo-4H-chromen-8-yl)ethyl)amino)benzoic acid]"
> 10,1.06,"Cc1cc(C(C)Nc2ccccc2C(=O)O)c2oc(-c3ccc4nn(C)nc4c3)cc(=O)c2c1 (centres unmarked) [Example 69, 2-((1-(6-methyl-2-(2-methyl-2H-benzo[d][1,2,3]triazol-5-yl)-4-oxo-4H-chromen-8-yl)ethyl)amino)benzoic acid]"
> 10,0.26,"Cc1cc(C(C)Nc2ccccc2C(=O)O)c2oc(-c3ccc4nn(C)cc4n3)cc(=O)c2c1 (centres unmarked) [Example 84, 2-((1-(6-methyl-2-(2-methyl-2H-pyrazolo[4,3-b]pyridin-5-yl)-4-oxo-4H-chromen-8-yl)ethyl)amino)benzoic acid]"
